# Laboratory results from the supplement of paper PMC11208160.
# Assay: recombinant UMI read abundance after kanamycin selection (control-corrected) (log10(CPM+1)); higher = more efficient recombination; extreme values may be limits of the assay; sequences stand for … in AGTGCAGAGAAAATCGGCCAGTTTTCTCTGCCTGCAGTCCGCATGCCGTGGGACCCCTTGGGTTCTAACCTGTTGCCTAGATTTATGCAGCGGACTGCCTTTCTCCCAAAGTGATAAACCGG…AGGTTGGTTTCACT; site = the 11-nt donor
# Method in brief: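 After plating on IPTG (0.07 mM) plus kanamycin, or unselected, in two replicates, recombinant UMIs were PCR-amplified across the donor–target junction and sequenced. The cells were Escherichia coli co-electroporated with a UMI-tagged donor and donor-binding-loop pair library and a target plasmid with a fixed target and T7-inducible IS621 bridge recombinase. Values are log10(CPM+1), with CPM averaged over replicates and scaled by control-derived factors.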
# 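Further: IS621 bridge recombinase in Escherichia coli cells against a fixed T5 target plasmid.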
sequence,measurement,value
CGAGAACCATGGACCGGTTTTCCCGGTAATCCGTATTTGAT (site CGCGAACCTAT),recombinant UMI read abundance (log10),0
CGAGAACCATGGACCGGTTTTCCCGGTAATCCGTATTTGAT (site CGGGAACCTAT),recombinant UMI read abundance (log10),0
CGAGAACCATGGACCGGTTTTCCCGGTAATCCGTATTTGAT (site CGTGAACCTAT),recombinant UMI read abundance (log10),0
CGAGCACCATGGACCGGTTTTCCCGGTAATCCGTATTTGCT (site CGAGCACCTAG),recombinant UMI read abundance (log10),0
CGAGCGACATGGACCGGTTTTCCCGGTAATCCGTATTTGTT (site CGAACGACTAA),recombinant UMI read abundance (log10),0.607
CGAGCGACATGGACCGGTTTTCCCGGTAATCCGTATTTGTT (site CGACCGACTAA),recombinant UMI read abundance (log10),0.0145
CGAGCGACATGGACCGGTTTTCCCGGTAATCCGTATTTGTT (site CGAGCGACTAA),recombinant UMI read abundance (log10),1.49
CGAGCGACATGGACCGGTTTTCCCGGTAATCCGTATTTGTT (site CGATCGACTAA),recombinant UMI read abundance (log10),0.0192
CGAGCGCCATGGACCGGTTTTCCCGGTAATCCGTATTTGTG (site CAAGCGCCTCA),recombinant UMI read abundance (log10),0.0595
CGAGCGCCATGGACCGGTTTTCCCGGTAATCCGTATTTGTG (site CCAGCGCCTCA),recombinant UMI read abundance (log10),0.0345
CGAGCGCCATGGACCGGTTTTCCCGGTAATCCGTATTTGTG (site CGAGCGCCTCA),recombinant UMI read abundance (log10),0.219
CGAGCGCCATGGACCGGTTTTCCCGGTAATCCGTATTTGTG (site CTAGCGCCTCA),recombinant UMI read abundance (log10),0.0326
CGAGGAACATGGACCGGTTTTCCCGGTAATCCGTATTTGGG (site CGAGGAACTCC),recombinant UMI read abundance (log10),1.53
CGAGGAACATGGACCGGTTTTCCCGGTAATCCGTATTTGGG (site CGAGGACCTCC),recombinant UMI read abundance (log10),0.0124
CGAGGAACATGGACCGGTTTTCCCGGTAATCCGTATTTGGG (site CGAGGAGCTCC),recombinant UMI read abundance (log10),0.376
CGAGGAACATGGACCGGTTTTCCCGGTAATCCGTATTTGGG (site CGAGGATCTCC),recombinant UMI read abundance (log10),1.59
CGAGGAACATGGACCGGTTTTCCCGGTAATCCGTATTTGTT (site CGAGGAACTAA),recombinant UMI read abundance (log10),2.78
CGAGGAACATGGACCGGTTTTCCCGGTAATCCGTATTTGTT (site CGCGGAACTAA),recombinant UMI read abundance (log10),0.0367
CGAGGAACATGGACCGGTTTTCCCGGTAATCCGTATTTGTT (site CGGGGAACTAA),recombinant UMI read abundance (log10),0.474
CGAGGAACATGGACCGGTTTTCCCGGTAATCCGTATTTGTT (site CGTGGAACTAA),recombinant UMI read abundance (log10),1.82
CGAGGACCATGGACCGGTTTTCCCGGTAATCCGTATTTGGG (site AGAGGACCTCC),recombinant UMI read abundance (log10),0.00643
CGAGGACCATGGACCGGTTTTCCCGGTAATCCGTATTTGGG (site CAAGGACCTCC),recombinant UMI read abundance (log10),0.019
CGAGGACCATGGACCGGTTTTCCCGGTAATCCGTATTTGGG (site CCAGGACCTCC),recombinant UMI read abundance (log10),0.059
CGAGGACCATGGACCGGTTTTCCCGGTAATCCGTATTTGGG (site CGAAGACCTCC),recombinant UMI read abundance (log10),0
CGAGGACCATGGACCGGTTTTCCCGGTAATCCGTATTTGGG (site CGACGACCTCC),recombinant UMI read abundance (log10),0.00414
CGAGGACCATGGACCGGTTTTCCCGGTAATCCGTATTTGGG (site CGAGAACCTCC),recombinant UMI read abundance (log10),0.0154
CGAGGACCATGGACCGGTTTTCCCGGTAATCCGTATTTGGG (site CGAGCACCTCC),recombinant UMI read abundance (log10),0
CGAGGACCATGGACCGGTTTTCCCGGTAATCCGTATTTGGG (site CGAGGAACTCC),recombinant UMI read abundance (log10),0.0189
CGAGGACCATGGACCGGTTTTCCCGGTAATCCGTATTTGGG (site CGAGGACCTAC),recombinant UMI read abundance (log10),0
CGAGGACCATGGACCGGTTTTCCCGGTAATCCGTATTTGGG (site CGAGGACCTCA),recombinant UMI read abundance (log10),0.0034
CGAGGACCATGGACCGGTTTTCCCGGTAATCCGTATTTGGG (site CGAGGACCTCC),recombinant UMI read abundance (log10),0.0104
CGAGGACCATGGACCGGTTTTCCCGGTAATCCGTATTTGGG (site CGAGGACCTCG),recombinant UMI read abundance (log10),0
CGAGGACCATGGACCGGTTTTCCCGGTAATCCGTATTTGGG (site CGAGGACCTCT),recombinant UMI read abundance (log10),0.0267
CGAGGACCATGGACCGGTTTTCCCGGTAATCCGTATTTGGG (site CGAGGACCTGC),recombinant UMI read abundance (log10),0
CGAGGACCATGGACCGGTTTTCCCGGTAATCCGTATTTGGG (site CGAGGACCTTC),recombinant UMI read abundance (log10),0.00702
CGAGGACCATGGACCGGTTTTCCCGGTAATCCGTATTTGGG (site CGAGGAGCTCC),recombinant UMI read abundance (log10),0.00291
CGAGGACCATGGACCGGTTTTCCCGGTAATCCGTATTTGGG (site CGAGGATCTCC),recombinant UMI read abundance (log10),0.156
CGAGGACCATGGACCGGTTTTCCCGGTAATCCGTATTTGGG (site CGAGGCCCTCC),recombinant UMI read abundance (log10),0.0207
CGAGGACCATGGACCGGTTTTCCCGGTAATCCGTATTTGGG (site CGAGGGCCTCC),recombinant UMI read abundance (log10),0.0101
CGAGGACCATGGACCGGTTTTCCCGGTAATCCGTATTTGGG (site CGAGGTCCTCC),recombinant UMI read abundance (log10),0.00323
CGAGGACCATGGACCGGTTTTCCCGGTAATCCGTATTTGGG (site CGAGTACCTCC),recombinant UMI read abundance (log10),0
CGAGGACCATGGACCGGTTTTCCCGGTAATCCGTATTTGGG (site CGATGACCTCC),recombinant UMI read abundance (log10),0.0104
CGAGGACCATGGACCGGTTTTCCCGGTAATCCGTATTTGGG (site CGCGGACCTCC),recombinant UMI read abundance (log10),0
CGAGGACCATGGACCGGTTTTCCCGGTAATCCGTATTTGGG (site CGGGGACCTCC),recombinant UMI read abundance (log10),0
CGAGGACCATGGACCGGTTTTCCCGGTAATCCGTATTTGGG (site CGTGGACCTCC),recombinant UMI read abundance (log10),0.0136
CGAGGACCATGGACCGGTTTTCCCGGTAATCCGTATTTGGG (site CTAGGACCTCC),recombinant UMI read abundance (log10),0.00778
CGAGGACCATGGACCGGTTTTCCCGGTAATCCGTATTTGGG (site GGAGGACCTCC),recombinant UMI read abundance (log10),0.0223
CGAGGACCATGGACCGGTTTTCCCGGTAATCCGTATTTGGG (site TGAGGACCTCC),recombinant UMI read abundance (log10),0.02
CGAGGACCATGGACCGGTTTTCCCGGTAATCCGTATTTGGT (site CGAGGACCTAC),recombinant UMI read abundance (log10),0.0053
CGAGGACCATGGACCGGTTTTCCCGGTAATCCGTATTTGGT (site CGAGGACCTCC),recombinant UMI read abundance (log10),0.0157
CGAGGACCATGGACCGGTTTTCCCGGTAATCCGTATTTGGT (site CGAGGACCTGC),recombinant UMI read abundance (log10),0
CGAGGACCATGGACCGGTTTTCCCGGTAATCCGTATTTGGT (site CGAGGACCTTC),recombinant UMI read abundance (log10),0.0098
CGAGGACCATGGACCGGTTTTCCCGGTAATCCGTATTTGTG (site CGAGGACCTCA),recombinant UMI read abundance (log10),0.00285
CGAGGACCATGGACCGGTTTTCCCGGTAATCCGTATTTGTG (site CGAGGACCTCC),recombinant UMI read abundance (log10),0.0189
CGAGGACCATGGACCGGTTTTCCCGGTAATCCGTATTTGTG (site CGAGGACCTCG),recombinant UMI read abundance (log10),0
CGAGGACCATGGACCGGTTTTCCCGGTAATCCGTATTTGTG (site CGAGGACCTCT),recombinant UMI read abundance (log10),0.0187
CGAGGAGCATGGACCGGTTTTCCCGGTAATCCGTATTTGGG (site CGAGGAACTCC),recombinant UMI read abundance (log10),0.567
CGAGGAGCATGGACCGGTTTTCCCGGTAATCCGTATTTGGG (site CGAGGACCTCC),recombinant UMI read abundance (log10),0.0303
CGAGGAGCATGGACCGGTTTTCCCGGTAATCCGTATTTGGG (site CGAGGAGCTCC),recombinant UMI read abundance (log10),0.918
CGAGGAGCATGGACCGGTTTTCCCGGTAATCCGTATTTGGG (site CGAGGATCTCC),recombinant UMI read abundance (log10),0.704
CGAGGTCCATGGACCGGTTTTCCCGGTAATCCGTATTTGGG (site CGAGGACCTCC),recombinant UMI read abundance (log10),0.0132
CGAGGTCCATGGACCGGTTTTCCCGGTAATCCGTATTTGGG (site CGAGGCCCTCC),recombinant UMI read abundance (log10),0.0189
CGAGGTCCATGGACCGGTTTTCCCGGTAATCCGTATTTGGG (site CGAGGGCCTCC),recombinant UMI read abundance (log10),0.0131
CGAGGTCCATGGACCGGTTTTCCCGGTAATCCGTATTTGGG (site CGAGGTCCTCC),recombinant UMI read abundance (log10),0.0134
CGAGGTGCATGGACCGGTTTTCCCGGTAATCCGTATTTGAT (site CAAGGTGCTAT),recombinant UMI read abundance (log10),1.84
CGAGGTGCATGGACCGGTTTTCCCGGTAATCCGTATTTGAT (site CCAGGTGCTAT),recombinant UMI read abundance (log10),1.37
CGAGGTGCATGGACCGGTTTTCCCGGTAATCCGTATTTGAT (site CGAGGTGCTAT),recombinant UMI read abundance (log10),2.36
CGAGGTGCATGGACCGGTTTTCCCGGTAATCCGTATTTGAT (site CTAGGTGCTAT),recombinant UMI read abundance (log10),1.6
CGAGTAGCATGGACCGGTTTTCCCGGTAATCCGTATTTGCC (site CGAGTAGCTGG),recombinant UMI read abundance (log10),1.66
CGAGTATCATGGACCGGTTTTCCCGGTAATCCGTATTTGGC (site CGAGTATCTGC),recombinant UMI read abundance (log10),3.08
CGAGTATCATGGACCGGTTTTCCCGGTAATCCGTATTTGGC (site CTAGTATCTGT),recombinant UMI read abundance (log10),2.29
CGAGTCACATGGACCGGTTTTCCCGGTAATCCGTATTTGGG (site CAAGTCACTCC),recombinant UMI read abundance (log10),0.0136
CGAGTCACATGGACCGGTTTTCCCGGTAATCCGTATTTGGG (site CCAGTCACTCC),recombinant UMI read abundance (log10),0.0249
CGAGTCACATGGACCGGTTTTCCCGGTAATCCGTATTTGGG (site CGAGTCACTCC),recombinant UMI read abundance (log10),0.184
CGAGTCACATGGACCGGTTTTCCCGGTAATCCGTATTTGGG (site CTAGTCACTCC),recombinant UMI read abundance (log10),0.00855
